Results from ChEMBL document CHEMBL1177739, “Fast-forwarding hit to lead: aurora and epidermal growth factor receptor kinase inhibitor lead identification” (J Med Chem, 2010).

What was measured:
Aurora kinase A = target: T1, Aurora kinase A (Homo sapiens, UniProt O14965)
T1 sequence (O14965 whole entry): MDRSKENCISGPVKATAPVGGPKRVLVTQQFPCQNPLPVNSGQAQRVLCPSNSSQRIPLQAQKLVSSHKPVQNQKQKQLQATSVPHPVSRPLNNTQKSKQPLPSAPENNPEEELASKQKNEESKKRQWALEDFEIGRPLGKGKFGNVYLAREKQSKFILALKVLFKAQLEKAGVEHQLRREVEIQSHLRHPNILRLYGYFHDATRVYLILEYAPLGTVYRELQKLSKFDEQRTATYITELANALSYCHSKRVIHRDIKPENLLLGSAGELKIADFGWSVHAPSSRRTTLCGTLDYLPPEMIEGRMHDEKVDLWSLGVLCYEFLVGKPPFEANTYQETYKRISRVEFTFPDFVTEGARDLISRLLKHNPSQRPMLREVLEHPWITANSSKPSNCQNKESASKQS

[1] = target: Epidermal growth factor receptor (Homo sapiens, UniProt P00533, L858R/T790M)
Sequence of Epidermal growth factor receptor (Homo sapiens, UniProt P00533, L858R/T790M) (P00533 25-1210 T790M/L858R limits assumed): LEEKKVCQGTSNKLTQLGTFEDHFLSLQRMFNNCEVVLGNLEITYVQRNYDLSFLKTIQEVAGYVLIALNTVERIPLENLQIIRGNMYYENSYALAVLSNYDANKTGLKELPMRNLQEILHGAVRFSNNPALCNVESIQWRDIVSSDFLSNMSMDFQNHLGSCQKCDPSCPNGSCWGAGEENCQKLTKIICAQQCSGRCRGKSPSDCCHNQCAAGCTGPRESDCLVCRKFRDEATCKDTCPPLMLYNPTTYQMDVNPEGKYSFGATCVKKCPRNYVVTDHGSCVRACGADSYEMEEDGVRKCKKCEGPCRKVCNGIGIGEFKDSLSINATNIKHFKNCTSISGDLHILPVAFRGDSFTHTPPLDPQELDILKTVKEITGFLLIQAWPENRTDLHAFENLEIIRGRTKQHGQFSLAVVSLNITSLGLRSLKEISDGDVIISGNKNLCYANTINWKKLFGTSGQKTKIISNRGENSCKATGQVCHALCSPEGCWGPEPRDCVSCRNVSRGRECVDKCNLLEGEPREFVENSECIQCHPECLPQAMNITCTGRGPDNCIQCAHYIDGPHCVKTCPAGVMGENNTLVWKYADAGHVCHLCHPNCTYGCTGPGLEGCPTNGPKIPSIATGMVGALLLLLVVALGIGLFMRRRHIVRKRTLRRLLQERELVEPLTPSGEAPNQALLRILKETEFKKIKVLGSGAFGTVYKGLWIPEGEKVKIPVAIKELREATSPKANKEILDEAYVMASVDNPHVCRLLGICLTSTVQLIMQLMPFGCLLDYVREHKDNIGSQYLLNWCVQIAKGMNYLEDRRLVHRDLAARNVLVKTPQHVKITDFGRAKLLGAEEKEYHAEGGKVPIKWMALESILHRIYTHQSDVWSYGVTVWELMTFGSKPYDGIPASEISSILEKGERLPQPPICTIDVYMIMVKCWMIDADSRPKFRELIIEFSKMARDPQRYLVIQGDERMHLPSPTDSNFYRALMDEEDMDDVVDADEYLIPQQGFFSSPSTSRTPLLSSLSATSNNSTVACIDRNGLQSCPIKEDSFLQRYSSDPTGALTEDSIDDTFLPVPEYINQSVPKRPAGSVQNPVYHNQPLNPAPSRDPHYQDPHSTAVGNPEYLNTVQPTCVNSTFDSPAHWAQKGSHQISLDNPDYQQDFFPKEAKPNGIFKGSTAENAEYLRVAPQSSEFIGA

[2] = target: T2, Epidermal growth factor receptor (Homo sapiens, UniProt P00533)
T2 sequence (P00533 whole entry): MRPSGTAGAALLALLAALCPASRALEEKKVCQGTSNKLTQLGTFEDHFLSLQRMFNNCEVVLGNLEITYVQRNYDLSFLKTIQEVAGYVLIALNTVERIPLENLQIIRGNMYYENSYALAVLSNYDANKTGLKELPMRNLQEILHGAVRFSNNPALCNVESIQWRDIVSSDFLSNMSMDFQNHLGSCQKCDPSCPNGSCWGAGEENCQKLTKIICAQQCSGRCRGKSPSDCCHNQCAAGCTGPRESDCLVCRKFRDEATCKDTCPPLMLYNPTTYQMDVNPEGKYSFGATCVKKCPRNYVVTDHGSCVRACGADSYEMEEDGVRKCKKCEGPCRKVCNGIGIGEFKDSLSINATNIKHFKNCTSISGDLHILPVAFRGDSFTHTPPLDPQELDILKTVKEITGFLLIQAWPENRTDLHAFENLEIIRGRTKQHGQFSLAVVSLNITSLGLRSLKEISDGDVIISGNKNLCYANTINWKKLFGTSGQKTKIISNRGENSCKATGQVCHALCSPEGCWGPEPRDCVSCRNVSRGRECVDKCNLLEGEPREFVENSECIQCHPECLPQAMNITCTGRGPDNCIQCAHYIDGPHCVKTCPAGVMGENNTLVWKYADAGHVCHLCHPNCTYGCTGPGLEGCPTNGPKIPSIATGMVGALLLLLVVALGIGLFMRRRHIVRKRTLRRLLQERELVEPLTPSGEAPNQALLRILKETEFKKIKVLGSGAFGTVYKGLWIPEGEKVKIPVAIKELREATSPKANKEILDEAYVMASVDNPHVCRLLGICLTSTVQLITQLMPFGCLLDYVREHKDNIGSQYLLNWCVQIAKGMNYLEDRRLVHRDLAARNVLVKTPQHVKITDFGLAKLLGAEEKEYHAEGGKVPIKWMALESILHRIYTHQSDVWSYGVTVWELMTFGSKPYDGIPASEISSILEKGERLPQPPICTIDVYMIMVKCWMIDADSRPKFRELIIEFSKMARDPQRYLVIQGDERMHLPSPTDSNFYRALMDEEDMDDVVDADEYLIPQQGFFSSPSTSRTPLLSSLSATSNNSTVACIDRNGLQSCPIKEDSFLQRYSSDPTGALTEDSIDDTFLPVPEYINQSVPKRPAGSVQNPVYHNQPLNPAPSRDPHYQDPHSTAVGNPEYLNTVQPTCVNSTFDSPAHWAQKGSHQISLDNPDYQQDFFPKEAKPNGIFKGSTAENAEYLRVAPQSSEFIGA
Description: Inhibition of GST-tagged EGFR expressed in Escherichia coli

cells = conditions: Homo sapiens, HCC827, 96 h
Description: Antiproliferative activity against human HCC827 cells after 96 hrs by MTS assay

HCT-116 = experiment: Cytotoxicity against human HCT116 cells by MTS assay; type: functional, cell-based
[3] = target: T2, Epidermal growth factor receptor; conditions: 20 uM
Description: Inhibition of GST-tagged EGFR expressed in Escherichia coli at 20 uM

[4] = target: T3, Aurora kinase A (Homo sapiens) (UniProt O14965); experiment: Inhibition of Aurora A at 10 uM
T3 sequence (whole entry): T1 sequence (O14965 whole entry)

SMILES | IC50 (Aurora kinase A) | IC50 (HCT-116) | also measured
c1ccc(-c2oc3ncnc(NCCc4ccccn4)c3c2-c2ccccc2)cc1 | 535 nM | – | –
C=CC(=O)Nc1ccc(-c2c(-c3ccccc3)oc3ncnc(N[C@H](CO)c4ccccc4)c23)cc1 | – | – | IC50 [1]: > 10000 nM; IC50 [2]: 82 nM; IC50 (cells): 394 nM
c1ccc(-c2oc3ncnc(NCCc4cnc[nH]4)c3c2-c2ccccc2)cc1 | 296 nM | – | –
C[C@@H](O)CNc1ncnc2oc(-c3ccccc3)c(-c3ccccc3)c12 | 973 nM | – | –
O=C(CCNc1ncnc2oc(-c3ccccc3)c(-c3ccccc3)c12)Nc1ccccc1 | > 10000 nM | > 10000 nM | –
CCOC(=O)CCNc1ncnc2oc(-c3ccccc3)c(-c3ccccc3)c12 | 796 nM | > 10000 nM | –
COC1C=CC(CNc2ncnc3oc(-c4ccccc4)c(-c4ccccc4)c23)(OC)O1 (configuration not stated) | 827 nM | – | –
Nc1ccc(CNc2ncnc3oc(-c4ccccc4)c(-c4ccccc4)c23)cc1 | 945 nM | – | –
O=C(Nc1ccccc1)Nc1ccc(CCNc2ncnc3oc(-c4ccccc4)c(-c4ccccc4)c23)cc1 | – | 400 nM | –
OC[C@@H](Nc1ncnc2oc(-c3ccccc3)c(-c3ccccc3)c12)c1ccccc1 | – | – | IC50 [1]: > 10000 nM; IC50 [2]: 223 nM; IC50 (cells): 518 nM; inhibition [3]: > 80%
OC1CCN(c2ncnc3oc(-c4ccccc4)c(-c4ccccc4)c23)CC1 | 807 nM | – | inhibition [4]: 85.8%
Oc1ccc(CCNc2ncnc3oc(-c4ccccc4)c(-c4ccccc4)c23)cc1 | 640 nM | – | –
Cc1cc(Nc2cc(N3CCN(C)CC3)nc(Sc3ccc(NC(=O)C4CC4)cc3)n2)n[nH]1 [TOZASERTIB] | – | 120 nM | –
CC1CN(c2ncnc3oc(-c4ccccc4)c(-c4ccccc4)c23)CC(C)N1 (configuration not stated) | 334 nM | – | –
c1ccc(-c2oc3ncnc(NCCc4c[nH]cn4)c3c2-c2ccccc2)cc1 | – | – | inhibition [4]: 91.4%
Nc1ccc(CCNc2ncnc3oc(-c4ccccc4)c(-c4ccccc4)c23)cc1 | 640 nM | > 10000 nM | –
c1ccc(-c2oc3ncnc(NCCCn4ccnc4)c3c2-c2ccccc2)cc1 | 3310 nM | – | inhibition [4]: 73.8%
C[C@@H](CO)Nc1ncnc2oc(-c3ccccc3)c(-c3ccccc3)c12 | 792 nM | – | –
OCCOCCNc1ncnc2oc(-c3ccccc3)c(-c3ccccc3)c12 | 760 nM | – | –
O=C(Nc1ccc(CCNc2ncnc3oc(-c4ccccc4)c(-c4ccccc4)c23)cc1)c1ccccc1 | 304 nM | > 10000 nM | –
OCCNc1ncnc2oc(-c3ccccc3)c(-c3ccccc3)c12 | 309 nM | – | inhibition [4]: 98.2%
c1ccc(-c2oc3ncnc(NCCN4CCOCC4)c3c2-c2ccccc2)cc1 | 1770 nM | – | inhibition [4]: 81.7%
O=S(=O)(Nc1ccc(CCNc2ncnc3oc(-c4ccccc4)c(-c4ccccc4)c23)cc1)c1ccccc1 | 5830 nM | > 10000 nM | –
